Assay results published in US10065984B2, “Polymorphic forms of a steroid-like compound and methods for the preparation and use thereof” (Allergan, Inc., priority 2013, dated 2018).

Tests used:
[1] = Storage stability of crystalline Form 1, XRPD spectrum before and after storage; format: physicochemical
Procedure: X-Ray Powder Diffraction patterns were collected on a Bruker D8 diffractometer using Cu Kα radiation (40 kV, 40 mA), θ-2θ goniometer, and divergence of V4 and receiving slits, a Ge monochromator and a Lynxeye detector. Samples were run under ambient conditions as flat plate specimens. The sample was gently packed into a cavity cut into polished, zero-background (510) silicon wafer. The parameters of the data collection are: • Angular range: 2 to 42°2θ • Step size: 0.05°2θ • Collection time: 0.5 s/step
A sample of the steroid-like compound in crystalline Form 1 was stored for 7 days at 40° C. and 75% relative humidity. After that time an XRPD spectrum was obtained and compared to the XRPD spectrum of the sample before the storage at the elevated temperature and humidity. […] Similarly, another sample of the steroid-like compound in crystalline Form 1 was stored for 1 year at room temperature (21° C. and uncontrolled relative humidity).

[2] = Conversion of substantially amorphous material to crystalline Form 1 at elevated temperature and/or humidity; format: physicochemical
Source text: In certain embodiments, a substantially amorphous form of the steroid-like compound contemplated for use herein can be converted into crystalline Form 1 by subjecting said amorphous material to elevated temperatures and/or elevated humidity sufficient to promote the desired conversion.
As used herein, “substantial portion thereof” refers to the major portion of the sample in question, i.e., greater than 50% of the sample, undergoes conversion from the amorphous form thereof to crystalline Form 1; in some embodiments, greater than 60% of the sample undergoes conversion from the amorphous form thereof to crystalline Form 1; in some embodiments, greater than 70% of the sample undergoes conversion from the amorphous form thereof to crystalline Form 1; in some embodiments, greater than 80% of the sample undergoes conversion from the amorphous form thereof to crystalline Form 1; in some embodiments, greater than 90% of the sample undergoes conversion from the amorphous form thereof to crystalline Form 1.

Compound	change in the XRPD spectrum after storage ([1]; stored for 1 year at room temperature (21° C. and uncontrolled relative humidity))	change in the XRPD spectrum after storage ([1]; stored for 7 days at 40° C. and 75% relative humidity)	solid form conversion on exposure ([2]; 75% relative humidity at about 40° C. for about 1 week)	solid form conversion on exposure ([2]; 97% relative humidity at room temperature (about 25° C.) for about 2 weeks)	solid form conversion on exposure ([2]; temperature higher than about 110° C. for at least about 1 hour)
C[C@]12CCC(=O)C=C1CC[C@@H]1[C@@H]2[C@@H](O)C[C@@]2(C)[C@H]1CC[C@]2(OC(=O)c1ccccc1)C(=O)CO [crystalline Form 1]	no change	No noticeable change	–	–	–
C[C@]12CCC(=O)C=C1CC[C@@H]1[C@@H]2[C@@H](O)C[C@@]2(C)[C@H]1CC[C@]2(OC(=O)c1ccccc1)C(=O)CO [substantially amorphous form]	–	–	conversion of a substantial portion thereof to crystalline Form 1	conversion of a substantial portion thereof to crystalline Form 1	conversion of a substantial portion thereof to crystalline Form 1
